US7718394B2, “Methods for diagnosis and monitoring of neurological disease by detection of an encephalotoxin” (priority 2003, dated 2010)
Entries after “also recorded” stand apart in the source; their conditions may differ.

Assay: Inactivation of encephalotoxin by nitrous acid, heparin lyases and sulfatases (loss of neurotoxic activity)
Type: biochemical
Description: Structural characterization and inactivation of encephalotoxin (isolated by organic extractions, gel filtration, and sequential C18 HPLC from Aβ-stimulated microglial cell line BV2) was performed by various nitrous acid cleavage protocols. […] Traditionally, heparin lyase I acts primarily on heparin-containing GlcNS(1→4)IdoA2S sequences and heparin lyase III on HS primarily at a GlcNAc(1→4)IdoA or GlcNAc(1→4)GlcA sequence.
1 ml of CSF was fractionated by adsorption chromatography, dried under vacuum, and reconstituted in artificial CSF comprising electrolytes, such as NaCl, and glucose. Increasing amounts of fractionated toxin (range 0.1 to 500 ul equivalents of original sample volume) were added to triplicate cultures. Results were plotted as volume vs. % neuron kill (with kill calculated as % loss of immuno-stained hippocampal neurons against untreated control cultures). […] In order to compare different populations, a CSF Neurotoxicity Index was developed to assign scores that reflect level of neurotoxin. This index was calculated as an ED50 (the equivalent CSF volume that yields 50% of the maximal level of neuron killing).

O=NO [nitrous acid]
inactivation of encephalotoxin released by BV2 microglia (encephalotoxin from Aβ-stimulated microglial cell line BV2, FIG. 1A): inactivated; also recorded: eliminated
inactivation of encephalotoxin recovered from lumbar CSF of subject with AD (lumbar CSF, AD, FIG. 1C): inactivated
inactivation of encephalotoxin found in ventricular CSF of AD brain (ventricular CSF of AD brain, FIG. 1B): inactivated
